Results published in PMC6888004 (International Journal of Molecular Sciences, 2019).

Legend:
[1] = system: EBC-1 cells; assay: Cellular uptake in EBC-1 cells by flow cytometry; format: cell-based; details: 0.1, 1, 10 µM; 2, 6, 24, 72 h
Experimental: 2 × 10^4 EBC-1 cells per well were seeded onto 24 well plates (VWR) and allowed to adhere for 48 h. Cells were treated with [D-Lys^6(FITC)]–GnRH-I in complemented EMEM (Lonza) at 0.1, 1, and 10 µM, and incubated in a humidified, 5% CO2 atmosphere incubator for 2, 6, 24, and 72 h at 37 °C.
After incubation, supernatant was discarded and the cells were washed twice with PBS (Lonza). Trypsin (Thermo Fisher Scientific, cat. no.: 25300062) was added for 10 min at 37 °C. Cells were pelleted (250× g, 4 min, 4 °C) in flow cytometry tubes, resuspended in 300 µL PBS and kept at 4 °C for the rest of the experiment. The fluorescence intensity of the conjugate-stained cells was analysed using a FACS Calibur flow cytometer (BD Biosciences, San Jose, CA) using channel FL1. Data were evaluated by CellQuest Pro software (BD Biosciences). The relative median fluorescent intensity (MFI) values (based on DMSO control) were calculated.
Calculation formula: relative MFI compound;xh;yµM=MFI compound;xh;yµM/MFI DMSO control;xh • x time (h) • y concentration (µM)

[2] = system: EBC-1 cells; assay: Colocalization with lysosomes in EBC-1 cells by confocal microscopy; format: cell-based; details: 10 µM, 24 h
Experimental: EBC-1 cells were seeded in eight well Ibidi® μ-Slide microscopic slides (2 × 10^4 cells/well) and allowed to adhere for 48 h. Cells were then treated with 10 µM [D-Lys^6(FITC)]–GnRH-I in complemented EMEM (Lonza) and incubated in a humidified, 5% CO2 atmosphere incubator for 24 h at 37 °C.
To investigate colocalization of [D-Lys^6(FITC)]–GnRH-I with lysosomes (in Figure 6), after [D-Lys^6(FITC)]–GnRH-I treatment (24 h, 10 µM), Lysoview 633 dye was added to the treating medium and the cells were incubated for a further 1 h. After incubation, cells were washed twice with EMEM. Images of the living cells were acquired with a Zeiss Confocal LSM 710 microscope [Objective: Plan-Apochromat 63×/1.40 Oil DIC M27. Pinhole: 1.95 AU. Laser wavelength: 488 nm and 633 nm. Detection wavelength: 496–573 nm; 633–693 nm)].

[3] = parameters: method as in PMID 10639165; details: cited from earlier work
[4] = system: endometrial cancer; parameters: method as in https://clinicaltrials.gov; details: phase III, ref https://clinicaltrials.gov; cited from earlier work

Compound	cellular uptake [1]	colocalization with lysosome marker Lysoview 633 [2]	half-life in human serum [3]	clinical outcome compared to doxorubicin [4]
CC(C)C[C@H](NC(=O)[C@@H](CCCCNC(=S)Nc1ccc2c(c1)C(=O)OC21c2ccc(O)cc2Oc2cc(O)ccc21)NC(=O)[C@H](Cc1ccc(O)cc1)NC(=O)[C@H](CO)NC(=O)[C@H](Cc1c[nH]c2ccccc12)NC(=O)[C@H](Cc1c[nH]cn1)NC(=O)[C@@H]1CCC(=O)N1)C(=O)N[C@@H](CCCNC(=N)N)C(=O)N1CCC[C@H]1C(=O)NCC(N)=O [[D-Lys^6(FITC)]–GnRH-I]	concentration-dependent dynamic uptake	highly correlated		
zoptarelin doxorubicin			approximately 2 h	could neither extend overall survival, nor improve the safety profile
